Source: article PMC3606667 (Journal of natural products, 2013)
Like-named read-outs stand apart in the source and are kept apart here.

What was measured:
NF-κB (p65) = NF-κB (p65) (Homo sapiens, UniProt Q04206); test: Enzyme-based ELISA NF-κB; format: biochemical; conditions: for NF-κB (p65) inhibitory activity (in words): ELISA assay; for times more potent than the control compound rocaglamide in NF-κB (p65) assay: relative to rocaglamide
[1] = tested on: human monocytic leukemia cell line MONO-MAC-6; conditions: cited from earlier work
[2] = tested on: human monocytic leukemia cell line MONO-MAC-1; conditions: cited from earlier work
[3] = tested on: HT-29 human colon cancer cells; test: Cytotoxicity against HT-29 human colon cancer cells; format: cell-based; conditions: relative to perviridisin B (2), ED50 0.46 µM
[4] = tested on: CCD-112CoN normal colon cell line; test: Cytotoxicity against CCD-112CoN normal colon cell line; format: cell-based; conditions: read-out: CCD112CoNl ED50
[5] = tested on: LNCaP human prostate cancer cells; conditions: cited from earlier work
[6] = NF-κB (p65) ED50, ELISA assay, ED50 > 20 µM inactive

Sequence of NF-κB (p65) (Q04206 whole entry): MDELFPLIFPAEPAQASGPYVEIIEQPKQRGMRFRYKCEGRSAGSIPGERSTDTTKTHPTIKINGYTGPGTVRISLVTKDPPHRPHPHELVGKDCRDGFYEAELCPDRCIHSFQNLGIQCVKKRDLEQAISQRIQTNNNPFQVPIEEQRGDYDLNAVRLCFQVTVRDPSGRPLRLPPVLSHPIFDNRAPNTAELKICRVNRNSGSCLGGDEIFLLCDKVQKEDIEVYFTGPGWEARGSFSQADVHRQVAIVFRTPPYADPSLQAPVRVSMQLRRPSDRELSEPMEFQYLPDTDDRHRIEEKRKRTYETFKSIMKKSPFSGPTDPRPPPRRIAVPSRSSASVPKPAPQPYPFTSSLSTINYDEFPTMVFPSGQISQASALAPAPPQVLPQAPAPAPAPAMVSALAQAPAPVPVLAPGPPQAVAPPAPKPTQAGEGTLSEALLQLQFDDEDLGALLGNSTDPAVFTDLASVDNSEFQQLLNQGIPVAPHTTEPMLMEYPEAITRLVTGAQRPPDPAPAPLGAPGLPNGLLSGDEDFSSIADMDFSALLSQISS

Row | SMILES | IC50 (NF-κB (p65)) [µM] | IC50 (NF-κB (p65); [6]) [µM] | CC50 [4] [µM] | other results
1 | COc1ccc(-c2oc3cc(OC)cc(OC)c3c(=O)c2O)cc1 [5,7,4′-tri-O-methylkaempferol] | > 20 |  |  | 
2 | COc1ccc([C@@]23Oc4cc(OC)cc(OC)c4[C@]2(OC)[C@H](O)C[C@H]3c2ccccc2)cc1 [8b-O-methylrocaglaol] |  | > 20 |  | cytotoxicity result in MONO-MAC-6 [1]: negative result; cytotoxicity result in MONO-MAC-1 [2]: negative result
3 | COc1ccc([C@]23Oc4cc(OC)cc(OC)c4[C@](O)(C2O)[C@@H](c2ccccc2)[C@@H]3C(=O)NCCCCNC(=O)/C(C)=C/CO)cc1 (stereo partly shown) [Compound 1, perviridisin A] |  | > 20 |  | times less active than its C-10 epimer perviridisin B (2) against HT-29 cells [3]: over 25 times
4 | COc1ccc([C@]23Oc4cc(OC)cc(OC)c4[C@](O)(C2O)[C@@H](c2ccccc2)[C@@H]3C(=O)NCCCCNC(=O)/C(C)=C/CO)cc1 (stereo partly shown) [Compound 2, perviridisin B] |  |  | > 50 | NF-κB (p65) inhibitory activity (in words) (NF-κB (p65)): significant NF-κB (p65) inhibitory activity; IC50 (NF-κB (p65); NF-κB (p65) ED50): 2.4 µM
5 | COc1cc(OC)c2c(c1)O[C@@]1(c3ccc4c(c3)OCO4)[C@H](c3ccccc3)C[C@@H](O)[C@@]21OC [Compound 3, 8b-O-methyl-4′-demethoxy-3′,4′-methylenedioxyrocaglaol] |  | > 20 | > 50 | 
6 | COC(=O)[C@H]1[C@@H](O)[C@@]2(OC)c3c(OC)cc(OC)cc3O[C@@]2(c2ccc3c(c2)OCO3)[C@@H]1c1ccccc1 [Compound 4, methyl 8b-O-methyl-4′-demethoxy-3′,4′-methylenedioxyrocaglate] |  | > 20 | > 50 | 
7 | COc1ccc([C@@]23Oc4cc(OC)cc(OC)c4[C@]2(O)[C@H](O)C[C@H]3c2ccccc2)cc1 [Compound 9, rocaglaol] | 0.005 |  | > 50 | NF-κB (p65) inhibitory activity (in words) (NF-κB (p65)): significant NF-κB (p65) inhibitory activity; times more potent than the control compound rocaglamide in NF-κB (p65) assay (NF-κB (p65)): more than 10 times; effect on LNCaP cells (cell cycle, apoptosis) [5]: cause G2/M-phase cell cycle arrest and to induce apoptosis
8 | COC(=O)[C@H]1[C@@H](O)[C@@]2(O)c3c(OC)cc(OC)cc3O[C@@]2(c2ccc(OC)cc2)[C@@H]1c1ccccc1 [Compound 10, methyl rocaglate] |  | > 20 | > 50 | 
9 | COc1cc(OC)c2c(c1)O[C@@]1(c3ccc4c(c3)OCO4)[C@H](c3ccccc3)C[C@@H](O)[C@@]21O [Compound 11, 4′-demethoxy-3′,4′-methylenedioxyrocaglaol] | 0.33 |  | > 50 | NF-κB (p65) inhibitory activity (in words) (NF-κB (p65)): significant NF-κB (p65) inhibitory activity
10 | COC(=O)[C@H]1[C@@H](O)[C@@]2(O)c3c(OC)cc(OC)cc3O[C@@]2(c2ccc3c(c2)OCO3)[C@@H]1c1ccccc1 [Compound 12, methyl 4′-demethoxy-3′,4′-methylenedioxyrocaglate] | 3.54 |  | > 50 | NF-κB (p65) inhibitory activity (in words) (NF-κB (p65)): significant NF-κB (p65) inhibitory activity
11 | COc1ccc([C@@]23Oc4cc(OC)cc(OC)c4[C@]2(O)[C@H](O)[C@H](C(N)=O)[C@H]3c2ccccc2)cc1 [Compound 13, didesmethylrocaglamide] |  | > 20 | > 50 | 
12 | COC(=O)[C@H]1[C@@H](OC=O)[C@@]2(O)c3c(OC)cc(OC)cc3O[C@@]2(c2ccc3c(c2)OCO3)[C@@H]1c1ccccc1 [Compound 14, methyl 1-formyloxy-4′-demethoxy-3′,4′-methylenedioxyrocaglate] |  |  | > 50 | 
13 | COC(=O)[C@H]1[C@@H](OC=O)[C@@]2(O)c3c(OC)cc(OC)cc3O[C@@]2(c2ccc(OC)cc2)[C@@H]1c1ccccc1 [Compound 15, methyl 1-formyloxyrocaglate] |  | > 20 | > 50 | 
14 | COC(=O)[C@H]1[C@@H](O)[C@@]2(OC)c3c(OC)cc(OC)cc3O[C@@]2(c2ccc(OC)cc2)[C@@H]1c1ccccc1 [Compound 16, methyl 8b-O-methylrocaglate] |  | > 20 | > 50 | cytotoxicity result in MONO-MAC-6 [1]: negative result; cytotoxicity result in MONO-MAC-1 [2]: negative result
15 | CC(C)[C@H]1CC[C@]2(C)C(=O)CCC(C=O)=C[C@H]12 [Compound 17, 2-oxaisodauc-5-en-12-al] | 0.005 |  |  | NF-κB (p65) inhibitory activity (in words) (NF-κB (p65)): significant NF-κB (p65) inhibitory activity; times more potent than the control compound rocaglamide in NF-κB (p65) assay (NF-κB (p65)): more than 10 times
16 | CC(C)=C[C@H](O)[C@@H](O)[C@@H](CO)[C@H]1CC[C@@]2(C)[C@@H]3CC[C@H]4C(C)(C)[C@@H](O)CC[C@@]45C[C@@]35CC[C@]12C [argenteanol] |  | > 20 |  | 
17 | CC1(C)[C@H](O)CC[C@]2(C)[C@H]3CC[C@@H]4[C@@H]([C@]5(C)CCC(=O)O5)CC[C@@]4(C)[C@]3(C)CC[C@@H]12 [cabraleahydroxylactone] |  | > 20 |  | 
18 | CC1=CC(O)N(CCCCNC(=O)/C=C/c2ccccc2)C1=O (stereo not shown) [gigantamide A] | > 20 |  |  | 
19 | COc1ccc([C@@]23Oc4cc(OC)cc(OC)c4[C@]2(O)[C@H](O)[C@H](C(=O)N(C)C)[C@H]3c2ccccc2)cc1 [rocaglamide, reference compound] |  |  | > 50 | 
20 | COc1cc2ccc(=O)oc2cc1O [scopoletin] |  | > 20 |  | 
